How the values were obtained:
in vitro [1] = experiment: in vitro
In short: (§1)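 Test article (1 μM final) pre-equilibrated with intestinal S9 at 37 °C, then reaction started with cofactor cocktail; sampled at 0, 10, 20, 30 and 60 min and quenched in acidified acetonitrile. Prodrug and released PEA quantified by LC-MS/MS; half-life from single-phase exponential fit of percent remaining versus time 0.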

in vitro [2] = experiment: in vitro; remark: listed apart in the source
In short: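 Test article at 1 μM final was incubated at 37° C with S9 reaction mixture, and the reaction was started by adding cofactor cocktail. Samples taken at 0, 10, 20, 30 and 60 min were quenched in acidified acetonitrile, and prodrug and PEA were measured by LC-MS/MS. Half-life came from single-phase exponential decay of percent remaining versus time 0.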

in vitro [3] = experiment: in vitro; remark: listed apart in the source
In short: as §1

[4] = control compound, rat intestinal S9 fraction

CC/C=C\C/C=C\C/C=C\C/C=C\C/C=C\CCCC(=O)OCCNC(=O)CCCCCCCCCCCCCCC [Compound I-5]
Concentration (μM) of analyte PEA, 0 min (in vitro [1]; male, Sprague-Dawley, rat, 0 min, 1 μM): 0.029 µM | Concentration (μM) of analyte PEA, 10 min (in vitro [1]; male, Sprague-Dawley, rat, 10 min, 1 μM): 0.062 µM | Concentration (μM) of analyte PEA, 20 min (in vitro [1]; male, Sprague-Dawley, rat, 20 min, 1 μM): 0.099 µM | Concentration (μM) of analyte PEA, 30 min (in vitro [1]; male, Sprague-Dawley, rat, 30 min, 1 μM): 0.11 µM | Concentration (μM) of analyte PEA, 60 min (in vitro [1]; male, Sprague-Dawley, rat, 60 min, 1 μM): 0.18 µM | % Remaining of Initial (n = 1), 0 min (in vitro [1]; male, Sprague-Dawley, rat, s9, 0 h, 1 μM): 100% | % Remaining of Initial (n = 1), 10 min (in vitro [1]; male, Sprague-Dawley, rat, s9, 10 min, 1 μM): 57% | % Remaining of Initial (n = 1), 20 min (in vitro [1]; male, Sprague-Dawley, rat, s9, 20 min, 1 μM): 48% | % Remaining of Initial (n = 1), 30 min (in vitro [1]; male, Sprague-Dawley, rat, s9, 0.5 h, 1 μM): 46% | % Remaining of Initial (n = 1), 60 min (in vitro [1]; male, Sprague-Dawley, rat, s9, 1 h, 1 μM): 44% | microsomal CLint at 1 μM (in vitro [1]; male, Sprague-Dawley, rat, s9, CLint (mL/min/mg protein)): 18.2 µL/min/mg | half-life at 1 μM (in vitro [1]; male, Sprague-Dawley, rat, s9, Half-life (min)): 0.633 h | Concentration (μM) of analyte PEA, 0 min (in vitro [2]; male, Beagle, dog, 0 min, 1 μM): 0.13 µM | Concentration (μM) of analyte PEA, 10 min (in vitro [2]; male, Beagle, dog, 10 min, 1 μM): 0.26 µM | Concentration (μM) of analyte PEA, 20 min (in vitro [2]; male, Beagle, dog, 20 min, 1 μM): 0.25 µM | Concentration (μM) of analyte PEA, 30 min (in vitro [2]; male, Beagle, dog, 30 min, 1 μM): 0.25 µM | Concentration (μM) of analyte PEA, 60 min (in vitro [2]; male, Beagle, dog, 60 min, 1 μM): 0.28 µM | % Remaining of Initial (n = 1), 0 min (in vitro [2]; male, Beagle, dog, s9, 0 h, 1 μM): 100% | % Remaining of Initial (n = 1), 10 min (in vitro [2]; male, Beagle, dog, s9, 10 min, 1 μM): 50% | % Remaining of Initial (n = 1), 20 min (in vitro [2]; male, Beagle, dog, s9, 20 min, 1 μM): 48% | % Remaining of Initial (n = 1), 30 min (in vitro [2]; male, Beagle, dog, s9, 0.5 h, 1 μM): 36% | % Remaining of Initial (n = 1), 60 min (in vitro [2]; male, Beagle, dog, s9, 1 h, 1 μM): 36% | microsomal CLint at 1 μM (in vitro [2]; male, Beagle, dog, s9, CLint (mL/min/mg protein)): 26.3 µL/min/mg | half-life at 1 μM (in vitro [2]; male, Beagle, dog, s9, Half-life (min)): 0.433 h | Concentration (μM) of analyte PEA, 0 min (in vitro [3]; both, human, 0 min, 1 μM): 0 µM | Concentration (μM) of analyte PEA, 10 min (in vitro [3]; both, human, 10 min, 1 μM): 0.050 µM | Concentration (μM) of analyte PEA, 20 min (in vitro [3]; both, human, 20 min, 1 μM): 0.063 µM | Concentration (μM) of analyte PEA, 30 min (in vitro [3]; both, human, 30 min, 1 μM): 0.074 µM | Concentration (μM) of analyte PEA, 60 min (in vitro [3]; both, human, 60 min, 1 μM): 0.10 µM | % Remaining of Initial (n = 1), 0 min (in vitro [3]; both, human, s9, 0 h, 1 μM): 100% | % Remaining of Initial (n = 1), 10 min (in vitro [3]; both, human, s9, 10 min, 1 μM): 82% | % Remaining of Initial (n = 1), 20 min (in vitro [3]; both, human, s9, 20 min, 1 μM): 49% | % Remaining of Initial (n = 1), 30 min (in vitro [3]; both, human, s9, 0.5 h, 1 μM): 38% | % Remaining of Initial (n = 1), 60 min (in vitro [3]; both, human, s9, 1 h, 1 μM): 45% | microsomal CLint at 1 μM (in vitro [3]; both, human, s9, CLint (mL/min/mg protein)): 21.6 µL/min/mg | half-life at 1 μM (in vitro [3]; both, human, s9, Half-life (min)): 0.533 h

C[C@]12CC[C@H]3[C@@H](CCC4=CC(=O)CC[C@@]43C)[C@@H]1CC[C@@H]2O [Testosterone, testosterone, reference compound]
CLin (in vitro [1]; [4]): < 0.0116 ml/min/mg protein | CLin, calculated value in parentheses (in vitro [1]; [4]): 0.0068 ml/min/mg protein | microsomal CLint (in vitro [1]; male, Sprague-Dawley, rat, s9, CLint (ml/min/mg protein), calculated value in parentheses, control compound, rat intestinal S9 fraction, calculated value beyond duration of experiment): 6.52 µL/min/mg | microsomal CLint (in vitro [1]; male, Sprague-Dawley, rat, s9, CLint (ml/min/mg protein), control compound, rat intestinal S9 fraction): < 11.6 µL/min/mg | microsomal CLint (in vitro [1]; male, Sprague-Dawley, rat, s9, CLint, Control Compound, Rat intestinal S9 fraction): < 11.6 µL/min/mg | microsomal CLint (in vitro [1]; male, Sprague-Dawley, rat, s9, CLint, Rat intestinal S9 fraction, control compound): < 11.6 µL/min/mg | microsomal CLint (in vitro [1]; male, Sprague-Dawley, rat, s9, Clint, control compound, Example 4 control run): 5.97 µL/min/mg | half-life (in vitro [1]; male, Sprague-Dawley, rat, s9, Half-life (min), calculated value in parentheses, control compound, rat intestinal S9 fraction, calculated value beyond duration of experiment): 1.77 h | half-life (in vitro [1]; male, Sprague-Dawley, rat, s9, Half-life (min), control compound, rat intestinal S9 fraction): > 1 h | half-life (in vitro [1]; male, Sprague-Dawley, rat, s9, Half-life, Control Compound, Rat intestinal S9 fraction): > 1 h | half-life at 1 μM (in vitro [1]; male, Sprague-Dawley, rat, s9, Half-life, Rat intestinal S9 fraction): > 1 h | half-life (in vitro [1]; male, Sprague-Dawley, rat, s9, Half-life, calculated value in parentheses, control compound, rat intestinal S9 fraction): 1.7 h | half-life (in vitro [1]; male, Sprague-Dawley, rat, s9, Half-life, control compound, Example 4 control run): 1.93 h | half-life (in vitro [1]; male, Sprague-Dawley, rat, s9, Half-life, control compound, rat intestinal S9 fraction): > 1 h | CLin (in vitro [2]; control compound, dog intestinal S9 fraction): <0.0116 ml/min/mg protein | microsomal CLint (in vitro [2]; male, Beagle, dog, s9, CLint (ml/min/mg protein), calculated value in parentheses, control compound, dog intestinal S9 fraction, calculated value beyond duration of experiment): 7.22 µL/min/mg | microsomal CLint (in vitro [2]; male, Beagle, dog, s9, CLint (ml/min/mg protein), control compound, dog intestinal S9 fraction): < 11.6 µL/min/mg | microsomal CLint (in vitro [2]; male, Beagle, dog, s9, CLint, Control Compound, Dog intestinal S9 fraction): < 11.6 µL/min/mg | microsomal CLint (in vitro [2]; male, Beagle, dog, s9, CLint, Dog intestinal S9 fraction, control compound): < 11.6 µL/min/mg | half-life (in vitro [2]; male, Beagle, dog, s9, Half-life (min), calculated value in parentheses, control compound, dog intestinal S9 fraction, calculated value beyond duration of experiment): 1.6 h | half-life (in vitro [2]; male, Beagle, dog, s9, Half-life (min), control compound, dog intestinal S9 fraction): > 1 h | half-life (in vitro [2]; male, Beagle, dog, s9, Half-life, Control Compound, Dog intestinal S9 fraction): > 1 h | half-life at 1 μM (in vitro [2]; male, Beagle, dog, s9, Half-life, Dog intestinal S9 fraction): > 1 h | half-life (in vitro [2]; male, Beagle, dog, s9, Half-life, control compound, dog intestinal S9 fraction): > 1 h | microsomal CLint (in vitro [3]; both, human, s9, CLint, Control Compound, Human intestinal S9 fraction): 50.9 µL/min/mg | microsomal CLint (in vitro [3]; both, human, s9, CLint, Human intestinal S9 fraction, control compound): 50.9 µL/min/mg | microsomal CLint (in vitro [3]; both, human, s9, Clint, control compound, Example 4 control run): 26.9 µL/min/mg | half-life (in vitro [3]; both, human, s9, Half-life (min), control compound, human intestinal S9 fraction): 0.13 h | half-life (in vitro [3]; both, human, s9, Half-life, control compound, Example 4 control run): 0.433 h | half-life (in vitro [3]; both, human, s9, Half-life, control compound, human intestinal S9 fraction): 0.08 h | CLin (in vitro [3]; control compound, human intestinal S9 fraction): 0.144 ml/min/mg protein
